From patent publication US5912183A, “Peptide inhibitors of mitogenesis and motogenesis” (Pharmacia & Upjohn S.p.A., priority 1993, dated 1999) come the findings set out here.

Residues, ends and D or L forms follow the SMILES beside them.

For the assay, the system named is binding of PI 3-kinase holoenzyme to HGF/SF receptor. Nature of the assay: Competition of phosphopeptides with PI 3-kinase holoenzyme (A549 cytosolic extracts) for association with recombinant HGF/SF receptor (PI 3-kinase activity assay). More on the design: species or system human. The conditions noted are these: summary statement in the description. The procedure: FIG. 3. Inhibition of binding of PI 3-kinase holoenzyme to HGF/SF receptor by tyrosine-phosphorylated peptides. The phosphopeptides which efficiently out-competed p85 (FIG. 1) were assayed for the ability to interfere with binding of the PI 3-kinase holoenzyme to the HGF/SF receptor. Cytosolic extracts from three days-starved A549 cells were pre-incubated with each of the phosphopeptides (10 μM) prior to incubation with the immobilized recombinant HGF/SF receptor. The presence of receptor-associated PI 3-kinase in the immunocomplexes was determined by PI 3-kinase activity assay, as described in Materials and Methods of Example 4. The position of the phosphatidylinositol-3-phosphate (PIP) product of the PI 3-kinase reaction is indicated.
In vitro association experiments. Sf9 cells expressing the recombinant HGF/SF receptor (approximately 4×10^6 cells/point) were lysed 36 hours after infection in buffer A (10 mM Tris-HCl buffer pH 7.5, 10% glycerol, 1% Triton X-100, 150 mM NaCl, 5 mM EDTA), supplemented with 0.2 mM phenyl-methylsulfonyl fluoride, 1 μg/ml leupeptin, 0.1 TIU/ml aprotinin and 1 μg/ml pepstatin. […]
The presence of the p85 subunit of the PI 3-kinase in the receptor immunoprecipitate was determined by: i) labelling of the receptor and associated proteins with [γ-^32 P]ATP by in vitro kinase assay; ii) Western immunoblotting; iii) PI 3-kinase activity assay. […]

`CSCC[C@H](NC(=O)[C@@H](NC(=O)[C@H](CCC(=O)O)NC(=O)[C@@H](N)Cc1ccc(OP(=O)(O)O)cc1)C(C)C)C(=O)N[C@@H](CC(C)C)C(=O)N[C@@H](CCCCN)C(=O)N[C@@H](CS)C(=O)N[C@@H](Cc1c[nH]c2ccccc12)C(=O)O` [H-Tyr*-Glu-Val-Met-Leu-Lys-Cys-Trp-OH] (HELM PEPTIDE1{[N[C@@H](Cc1ccc(OP(=O)(O)O)cc1)C(=O)[*:2]].E.V.M.L.K.C.W}$$$$V2.0): the “Binding to PI 3-kinase” value is recorded as “capable of binding to PI 3-kinase”.
